Assay results reported in PubChem BioAssay (NCI).
“And” between values parts separate entries of the source, which are not always exact repeats. Identical values can stand only once.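 Protocol summary: plate cells (96-well), add compound at 5 concentrations, incubate 48 h, interpolate endpoints linearly. The concentration for 50% growth inhibition is given as GI50. At the TGI there is no net growth.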

Columns and labels:
Experiment in all cases: growth of human tumour cells (NCI), 48 h
CAKI-1 renal = tested on: CAKI-1 renal
HCT-116 colon = tested on: HCT-116 colon
OVCAR-3 ovarian = tested on: OVCAR-3 ovarian
OVCAR-5 ovarian = tested on: OVCAR-5 ovarian
RXF 393 renal = tested on: RXF 393 renal
SK-MEL-5 melanoma = tested on: SK-MEL-5 melanoma
SR leukemia = tested on: SR leukemia
T-47D breast = tested on: T-47D breast
TK-10 renal = tested on: TK-10 renal
UACC-257 melanoma = tested on: UACC-257 melanoma

| SMILES | GI50 (CAKI-1 renal) [µM] | TGI (CAKI-1 renal) [µM] | GI50 (HCT-116 colon) | TGI (HCT-116 colon) [µM] | GI50 (OVCAR-3 ovarian) [µM] | TGI (OVCAR-3 ovarian) [µM] | GI50 (OVCAR-5 ovarian) | TGI (OVCAR-5 ovarian) [µM] | GI50 (RXF 393 renal) | TGI (RXF 393 renal) [µM] | GI50 (SK-MEL-5 melanoma) | TGI (SK-MEL-5 melanoma) [µM] | GI50 (SR leukemia) [µM] | TGI (SR leukemia) [µM] | GI50 (T-47D breast) [µM] | TGI (T-47D breast) [µM] | GI50 (TK-10 renal) | TGI (TK-10 renal) [µM] | GI50 (UACC-257 melanoma) | TGI (UACC-257 melanoma) |
| --- | --- | --- | --- | --- | --- | --- | --- | --- | --- | --- | --- | --- | --- | --- | --- | --- | --- | --- | --- | --- |
| COc1cc(NC(=O)NCc2ccco2)ccc1-c1ccc(NC(=O)NCc2ccco2)cc1OC | 10.1 | > 100 | 0.696 µM | > 100 | 2.59 | 16.2 | 19.5 µM | > 100 | 1.88 µM | 6.22 | 0.93 µM | 21.4 | 0.458 | > 100 | 2.38 | > 100 | 1.01 µM | 9.87 | 2.72 µM | > 100 µM |
| COc1ccc(-c2cc(-c3cccc(NS(C)(=O)=O)c3)nc(N)c2C#N)cc1 | 0.0766 | > 34.4 | 0.0496 µM | 8.73 | 0.0298 | 0.115 | 0.416 µM | > 64.6 | 0.0506 µM | 0.44 | 0.113 µM | 4.92 | 0.047 | 25.7 | 0.362 | 13.7 | 0.278 µM | > 47.5 | – | – |
| C=C1C(=O)OC2/C=C(\CO)CC/C=C(\CO)CC(OC(=O)C(C)C)C12 (stereo not given) | – | 3.31 | – | 47.9 | – | 23.9 | – | 29.8 | – | 19.3 | – | 36 | – | > 52.1 | – | 24.8 | – | 15.6 | – | 27 µM |
| c1ccc(B2OCC(C3OB(c4ccccc4)OC4COB(c5ccccc5)OC43)O2)cc1 (stereo not given) | – | > 100 | – | > 100 | – | > 100 | – | > 100 | – | > 100 | – | > 100 | – | > 100 | – | > 100 | – | > 100 | – | > 100 µM |
| CC1(C)CC([P+](c2ccccc2)(c2ccccc2)c2ccccc2)=NN1 | > 100 | > 100 | 3.04 µM | > 100 | 2.18 | 73.7 | 18.7 µM | > 100 | 28.2 µM | > 100 | 3.13 µM | 17.7 | 1.2 | 5.51 | 0.91 | 8.44 | 1.47 µM | 16.6 | 2.82 µM | > 100 µM |
| Cc1ncc(C(=O)Nc2ccc(CN3CCN(C)CC3)c(C(F)(F)F)c2)cc1C#Cc1c(N)ncc2ccccc12 | 0.648 | 2.35 | 0.159 µM | 0.62 | 0.484 | 1.04 | 0.415 µM | 0.985 | 0.465 µM | 0.915 | 0.446 µM | 0.878 | 0.26 | 1.04 | 1.96 | 7.7 | 0.623 µM | 1.12 | 0.477 µM | 1.06 µM |
| Cn1cnc2c(F)c(Nc3ccc(Br)cc3F)c(C(=O)NOCCO)cc21 | 5.94 | > 100 | 0.203 µM and 0.317 µM | > 100 | > 100 | > 100 | 0.0286 µM and 0.022 µM | > 48.4 | 0.455 µM and 4.39 µM | > 96.2 | 0.787 µM and 0.414 µM | > 100 | > 47 | > 100 | > 100 | > 100 | 3.07 µM and 1.34 µM | > 100 | 0.0224 µM and 0.024 µM | 0.253 µM and 0.148 µM |
| C=C1C(OC/C=C/COC2O[C@@H]3O[C@@]4(C)CC[C@H]5[C@H](C)CC[C@@H](C2=C)[C@@]35OO4)O[C@@H]2O[C@@]3(C)CC[C@H]4[C@H](C)CC[C@@H]1[C@@]24OO3 (stereo not given in full) | 1.63 | 21.7 | 0.0907 µM | 16.6 | – | 11.4 | 0.0489 µM | 18.8 | 0.166 µM | 5.93 | 3.58 µM | 27.3 | 0.0315 | 2.6 | 0.0158 | 21.2 | 0.492 µM | 16.9 | 4.96 µM | 36 µM |
| CCN(CC)CCn1c2ccc(OC)cc2c2sc3cc(OC)ccc3c(=O)c21 | 1.65 | 3.77 | 0.659 µM | 2.02 | 2.12 | 4.54 | 1.92 µM | 4.92 | 1.4 µM | 2.79 | 1.74 µM | 3.12 | 0.704 | 3.05 | 2 | 4.89 | 2.33 µM | 8.15 | 1.92 µM | 3.94 µM |
| COC(=O)[C@H](C)NC(=O)[C@@H](OC)[C@@H]1Cc2cc3cc(OC4CC(OC5CC(O)C(O)C(C)O5)C(O)C(C)O4)c(C)c(O)c3c(O)c2C(=O)[C@H]1OC1CC(OC2CC(OC3CC(C)(O)C(O)C(C)O3)C(O)C(C)O2)C(O)C(C)O1 (stereo not given in full) | 0.129 | 2.02 | 0.0245 µM | > 50 | 0.118 | 7.41 | 0.158 µM | > 50 | – | – | 0.0358 µM | 0.355 | 0.0271 | > 50 | 0.143 | > 50 | 0.336 µM | > 50 | 0.052 µM | 0.846 µM |
| C=C(CNC(=O)c1ccccc1)c1ccc(C(=O)Nc2ccccc2N)cc1 | 4.09 | 45.4 | 1.6 µM | 15.2 | 11.2 | > 100 | 2.22 µM | > 100 | 3.08 µM | > 100 | 2.67 µM | 14.9 | – | – | 4.99 | > 100 | 2.12 µM | 13.6 | 3.62 µM | 23.6 µM |
| Fc1ccc2c(c1)C1=C(CO2)C(c2ccc(Cl)cc2)NC(=S)N1 (stereo not given) | 19.1 | 59.6 | – | – | 14.7 | 49.5 | 28.2 µM | 84.3 | – | – | 19.2 µM | 49.5 | 13 | 50.3 | 63.2 | > 100 | 59.1 µM | > 100 | 29.4 µM | 95.3 µM |
| Nc1c(C(=O)N/N=C/c2ccc(-c3cc(Cl)c(Cl)cc3Cl)o2)cnn1-c1ccnc2c(C(F)(F)F)cccc12 | 4.21 | > 100 | 3.42 µM | > 100 | 3.1 | > 100 | 5.29 µM | > 100 | – | – | 3.74 µM | 14.6 | 4.53 | 72.9 | 2.93 | > 100 | 3.48 µM | > 100 | – | – |
